Holding throughout (format): cell-based
In experiment [1] the target is EP2 subtype of the human PGE2 receptor (Homo sapiens, UniProt P43116). The experiment can be described thus: cAMP antagonism test on the human EP2 receptor (HTRF cAMP detection). The settings on record: hEP2 receptor, read-out: Antagonism hEP2 IC50. An outline of the steps:
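Cells expressing human EP2 preincubated 20 min at RT with compound (0.8 nM–16.5 μM), then stimulated 60 min with PGE2 (3× solution 1.5 nM) in PBS-IBMX. After 20 min lysis, cAMP measured by competitive HTRF with cAMP-d2 and Eu cryptate anti-cAMP antibody (665/620 nm ratio).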
For orientation: Time-resolved FRET reads energy transfer from a long-lived donor to a nearby acceptor.

For a further experiment, the target named is T1, human PGD receptor (Homo sapiens, UniProt Q13258).
T1 sequence (Q13258 1-359): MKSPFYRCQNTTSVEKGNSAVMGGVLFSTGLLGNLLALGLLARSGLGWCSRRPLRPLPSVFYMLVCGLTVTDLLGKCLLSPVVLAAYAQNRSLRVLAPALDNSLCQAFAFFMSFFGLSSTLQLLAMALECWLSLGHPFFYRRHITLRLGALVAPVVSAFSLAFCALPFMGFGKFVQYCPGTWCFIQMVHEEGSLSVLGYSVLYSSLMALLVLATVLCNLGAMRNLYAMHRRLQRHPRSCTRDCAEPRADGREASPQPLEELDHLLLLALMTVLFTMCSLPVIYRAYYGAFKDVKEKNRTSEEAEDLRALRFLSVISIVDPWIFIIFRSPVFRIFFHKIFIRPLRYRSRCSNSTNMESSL
The experiment can be described thus: cAMP antagonism test on the human prostaglandin D receptor (HTRF cAMP detection). The settings on record: selectivity towards hDP, IC50 measured by cAMP antagonism test. In a few lines:
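Cells pre-mixed with cAMP-d2 were preincubated with compound (0.8 nM–16.5 μM) for 20 min at RT, then stimulated with 3× PGD2 solution (6 nM, in PBS-IBMX) for 30 min at RT. After lysis (20 min), HTRF read at 665/620 nm; antagonism seen as rise in FRET ratio.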

For experiment [2], the target named is EP4 subtype of the human PGE2 receptor (Homo sapiens, UniProt P35408). As to the kind of experiment: cAMP antagonism test on the human EP4 receptor (HTRF cAMP detection). The settings on record: selectivity towards hEP4, IC50 measured by cAMP antagonism test. An outline of the steps: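 Cells expressing human EP4 preincubated 20 min at RT with compound (0.8 nM–16.5 μM), then stimulated with PGE2 (0.3 nM in 3× solution, with IBMX) 60 min at RT. After lysis, cAMP measured by HTRF competition (665/620 nm ratio); antagonism seen as rise in FRET signal.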
Sequence of EP4 subtype of the human PGE2 receptor (P35408 whole entry): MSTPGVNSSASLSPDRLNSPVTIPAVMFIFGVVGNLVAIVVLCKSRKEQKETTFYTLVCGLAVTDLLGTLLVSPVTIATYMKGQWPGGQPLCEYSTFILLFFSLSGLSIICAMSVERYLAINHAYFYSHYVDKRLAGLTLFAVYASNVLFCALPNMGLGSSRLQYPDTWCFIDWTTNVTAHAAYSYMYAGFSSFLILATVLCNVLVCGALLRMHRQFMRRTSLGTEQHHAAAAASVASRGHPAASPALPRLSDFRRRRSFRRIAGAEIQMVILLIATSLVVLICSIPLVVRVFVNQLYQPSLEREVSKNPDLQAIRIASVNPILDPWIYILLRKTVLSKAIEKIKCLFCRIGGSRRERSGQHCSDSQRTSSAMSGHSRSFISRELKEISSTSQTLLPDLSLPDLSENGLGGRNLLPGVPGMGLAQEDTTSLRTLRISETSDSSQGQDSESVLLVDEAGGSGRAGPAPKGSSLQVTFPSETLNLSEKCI

Here are results for 15 compounds from patent US9062041B2 (Bayer Intellectual Property GmbH, priority 2011, dated 2015).

Sequence of EP2 subtype of the human PGE2 receptor (P43116 whole entry): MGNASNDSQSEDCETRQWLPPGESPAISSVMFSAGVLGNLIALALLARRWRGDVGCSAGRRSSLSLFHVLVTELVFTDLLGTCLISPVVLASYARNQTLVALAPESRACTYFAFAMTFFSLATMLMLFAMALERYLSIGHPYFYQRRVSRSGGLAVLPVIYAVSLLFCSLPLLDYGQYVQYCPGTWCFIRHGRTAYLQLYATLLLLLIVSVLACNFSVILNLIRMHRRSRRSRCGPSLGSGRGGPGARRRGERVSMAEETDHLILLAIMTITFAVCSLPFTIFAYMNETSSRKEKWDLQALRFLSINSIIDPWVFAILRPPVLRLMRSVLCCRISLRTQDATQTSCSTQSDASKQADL

For orientation: IC50 means the concentration that gives 50% inhibition. As to `[2H]C([2H])([2H])OC([2H])([2H])C([2H])([2H])NC(=O)c1ccc2nn(CC3CCN(C(=O)c4ccc(Oc5ccc(F)cc5)cc4)CC3)cc2c1C` [Example 116, 2-({1-[4-(4-fluoro-phenoxy)benzoyl]-piperidin-4-yl}methyl)-4-methyl-N-(2-[^2H3]-methyloxy[^2H4]ethyl)-2H-indazol-5-carboxamide], the half-inhibitory concentration (IC50) in experiment [1] was found to be 5.52 nM. Besides, the “Selectivity hEP2/hDP” value at human PGD receptor was “xxx (xxx > 100)”. In experiment [2], the “Selectivity hEP2/hEP4” value is reported as “xxx (xxx > 100)”.
With `COCCNC(=O)c1ccc2nn(CC3CCN(C(=O)c4cn(C)c5ccccc45)CC3)cc2c1C` [Example 331, N-(2-methoxyethyl)-4-methyl-2-({1-[(1-methyl-1H-indol-3-yl)carbonyl]-piperidin-4-yl}methyl)-2H-indazol-5-carboxamide], the IC50 in experiment [1] amounted to 9.47 nM. In addition, on human PGD receptor, the “Selectivity hEP2/hDP” value is given as “xxx (xxx > 100)”. Also, the “Selectivity hEP2/hEP4” value in experiment [2] is listed as “xxx (xxx > 100)”.
For `COCCNC(=O)c1ccc2nn(CC3CCN(C(=O)c4ccc(-c5ccc(C)cc5)cc4F)CC3)cc2c1C` [Example 44, 2-({1-[(3-fluoro-4′-methylbiphenyl-4-yl)carbonyl]piperidin-4-yl}methyl)-N-(2-methoxyethyl)-4-methyl-2H-indazol-5-carboxamide], the half-maximal inhibitory concentration (IC50) in experiment [1] is 3.85 nM. Also, the “Selectivity hEP2/hDP” value on human PGD receptor is “xxx (xxx > 100)”. Further, the “Selectivity hEP2/hEP4” value in experiment [2] is “xxx (xxx > 100)”.
As for `Cc1c(C(=O)NCCOCC(F)(F)F)ccc2nn(CC3CCN(C(=O)c4ccc(-c5ccc(F)cc5)cc4)CC3)cc12` [Example 94, 2-({1-[(4′-fluoro-biphenyl-4-yl)-carbonyl]piperidin-4-yl}methyl)-4-methyl-N-[2-(2,2,2-trifluoroethoxy)-ethyl]-2H-indazol-5-carboxamide], the IC50 in experiment [1] is 12.8 nM. Further, on human PGD receptor, the “Selectivity hEP2/hDP” value is on record as “xxx (xxx > 100)”. In experiment [2], the “Selectivity hEP2/hEP4” value is reported as “xxx (xxx > 100)”.
On to `Cc1cc2nn(CC3CCN(C(=O)c4ccc(Oc5ccc(F)cc5)cc4)CC3)cc2cc1C(=O)NCCN1CCOCC1` [Example 78, 2-({1-[4-(4-fluoro-phenoxy)benzoyl]-piperidin-4-yl}-methyl)-6-methyl-N-(2-morpholinoethyl)-2H-indazol-5-carboxamide], for which the concentration for half-maximal inhibition (IC50) in experiment [1] came to 31.7 nM. Besides, on human PGD receptor, the “Selectivity hEP2/hDP” value is on record as “xxx (xxx > 100)”. Besides, the “Selectivity hEP2/hEP4” value in experiment [2] was “xxx (xxx > 100)”.
Consider `O=C(NCCOCC1CC1)c1ccc2nn(CC3CCN(C(=O)c4ccc(Cl)cc4)CC3)cc2c1OC(F)F` [Example 229, 2-{[1-(4-chlorobenzoyl)piperidin-4-yl]methyl}-N-[2-(cyclopropylmethoxy)-ethyl]-4-(difluoromethoxy)-2H-indazol-5-carboxamide], for which the IC50 in experiment [1] is 10.2 nM. Moreover, the “Selectivity hEP2/hDP” value on human PGD receptor is “xxx (xxx > 100)”. Further, in experiment [2], the “Selectivity hEP2/hEP4” value was “xxx (xxx > 100)”.
On to `Cc1cc2nn(CC3CN(C(=O)c4ccc(Cl)cc4)C3)cc2cc1C(=O)NCC1CCCCO1` (racemic) [Example 191, (+/−)-2-{[1-(4-chlorobenzoyl)azetidin-3-yl]methyl}-6-methyl-N-(3,4,5,6-tetrahydro-2H-pyran-2-ylmethyl)-2H-indazol-5-carboxamide], for which, in experiment [1], the IC50 was 47.1 nM. Besides, the “Selectivity hEP2/hDP” value at human PGD receptor is “xxx (xxx > 100)”. The “Selectivity hEP2/hEP4” value in experiment [2] is “xxx (xxx > 100)”.
As for `Cc1c(C(=O)NCCSC(F)(F)F)ccc2nn(CC3CN(C(=O)c4ccc(S(F)(F)(F)(F)F)cc4)C3)cc12` [Example 135, 4-methyl-2-({1-[4-(pentafluoro-λ^6-sulphanyl)benzoyl]azetidin-3-yl}methyl)-N-{2-[(trifluoromethyl)sulphanyl]ethyl}-2H-indazol-5-carboxamide], the half-maximal inhibitory concentration (IC50) in experiment [1] is 19.5 nM. The “Selectivity hEP2/hDP” value on human PGD receptor is “xxx (xxx > 100)”. Further, the “Selectivity hEP2/hEP4” value in experiment [2] was “xxx (xxx > 100)”.
As to `Cc1c(C(=O)NCC(F)(F)F)ccc2nn(CC3CCN(C(=O)c4ccc(-c5ccc(C(F)(F)F)cn5)cc4)CC3)cc12` [Example 312, 4-methyl-N-(2,2,2-trifluoroethyl)-2-[(1-{4-[5-(trifluoromethyl)pyridin-2-yl]-benzoyl}piperidin-4-yl)methyl]-2H-indazol-5-carboxamide], the concentration for half-maximal inhibition (IC50) in experiment [1] amounted to 158 nM. The “Selectivity hEP2/hDP” value on human PGD receptor is recorded as “xxx (xxx > 100)”. Moreover, the “Selectivity hEP2/hEP4” value in experiment [2] is given as “xxx (xxx > 100)”.
Turning to `COCCNC(=O)c1ccc2nn(CC3CCN(C(=O)c4ccc(Oc5ccc(C(C)(C)C)cc5)cc4)CC3)cc2c1C` [Example 16, 2-({1-[4-(4-tert-butylphenoxy)-benzoyl]piperidin-4-yl}methyl)-N-(2-methoxyethyl)-4-methyl-2H-indazol-5-carboxamide], the IC50 in experiment [1] was 5.85 nM. In addition, the “Selectivity hEP2/hDP” value at human PGD receptor was “xxx (xxx > 100)”. Besides, the “Selectivity hEP2/hEP4” value in experiment [2] is recorded as “xxx (xxx > 100)”.
Consider `COCCNC(=O)c1ccc2nn(CC3CCN(C(=O)c4ccc(OC(F)(F)F)c(F)c4)CC3)cc2c1OC` [Example 272, 2-({1-[3-fluoro-4-(trifluoromethoxy)benzoyl]piperidin-4-yl}methyl)-4-methoxy-N-(2-methoxyethyl)-2H-indazol-5-carboxamide], for which the IC50 in experiment [1] was 23.7 nM. Moreover, the “Selectivity hEP2/hDP” value at human PGD receptor is recorded as “xxx (xxx > 100)”. Besides, the “Selectivity hEP2/hEP4” value in experiment [2] was “xxx (xxx > 100)”.
For the compound `COC1CN(CCNC(=O)c2ccc3nn(CC4CCN(C(=O)c5ccc(Cl)cc5)CC4)cc3c2C)C1` [Example 238, 2-{[1-(4-chlorobenzoyl)piperidin-4-yl]methyl}-N-[2-(3-methoxyazetidin-1-yl)ethyl]-4-methyl-2H-indazol-5-carboxamide], the half-maximal inhibitory concentration (IC50) in experiment [1] is 32.4 nM. Further, at human PGD receptor, the “Selectivity hEP2/hDP” value was “xxx (xxx > 100)”. The “Selectivity hEP2/hEP4” value in experiment [2] is on record as “xxx (xxx > 100)”.
On to `O=C(NCCOCC1CC1)c1ccc2nn(CC3CCN(C(=O)c4ccc(-c5ccc(F)cc5)cc4)CC3)cc2c1OCC(F)(F)F` [Example 237, N-[2-(cyclopropylmethoxy)ethyl]-2-({1-[(4′-fluorobiphenyl-4-yl)carbonyl]piperidin-4-yl}methyl)-4-(2,2,2-trifluoroethoxy)-2H-indazol-5-carboxamide], for which, in experiment [1], the IC50 came to 31 nM. For the same compound, the “Selectivity hEP2/hDP” value at human PGD receptor is recorded as “xxx (xxx > 100)”. In addition, the “Selectivity hEP2/hEP4” value in experiment [2] was “xxx (xxx > 100)”.
Take `Cc1c(C(=O)NCC2CCCCO2)ccc2nn(CC3CCN(C(=O)c4ccc(Oc5ccc(C(F)(F)F)cc5)cc4)CC3)cc12` (racemic) [Example 248, (+/−)-4-methyl-N-(3,4,5,6-tetrahydro-2H-pyran-2-ylmethyl)-2-[(1-{4-[4-(trifluoromethyl)phenoxy]benzoyl}piperidin-4-yl)methyl]-2H-indazol-5-carboxamide]: in experiment [1], the concentration for half-maximal inhibition (IC50) was 14.7 nM. The “Selectivity hEP2/hDP” value on human PGD receptor is given as “xxx (xxx > 100)”. For the same compound, the “Selectivity hEP2/hEP4” value in experiment [2] is listed as “xxx (xxx > 100)”.
Consider `Cc1c(C(=O)NCCS(C)(=O)=O)ccc2nn(CC3CCN(C(=O)c4ccc(-c5ccc(F)cc5)cc4)CC3)cc12` [Example 408, 2-({1-[(4′-fluorobiphenyl-4-yl)carbonyl]piperidin-4-yl}methyl)-N-(2-mesylethyl)-4-methyl-2H-indazol-5-carboxamide], for which the 50% inhibitory concentration (IC50) in experiment [1] was 23.5 nM. Further, the “Selectivity hEP2/hDP” value on human PGD receptor is on record as “xxx (xxx > 100)”. Also, the “Selectivity hEP2/hEP4” value in experiment [2] was “xxx (xxx > 100)”.
